Measurements reported in US10905680B2, “Methods of treatment for cholestatic and fibrotic diseases” (Genfit, priority 2016, dated 2021).

Experiments:
[1] = system: Human Intestinal Myofibroblasts (InMyoFib); test: TGFβ1-induced expression of α-SMA protein in human intestinal fibroblasts (ELISA); type: cell-based; conditions: concentration of 1 μM; TGFβ1 3 ng/ml, 48 hours
Protocol: NTZ (A) or TZ (B) were added to serum-deprived intestinal fibroblasts (InMyoFib) 1 hour before the activation with TGFβ1 (3 ng/ml). After 48 hours of incubation, the expression of α-SMA was measured by ELISA. The obtained values were transformed into percentage inhibition over TGFβ1 control. Data are presented as mean (triplicates)±standard deviation (SD). Statistical analyses were performed by one-way ANOVA followed by Bonferroni post-hoc tests, using Sigma Plot 11.0 software. [*: p<0.05; **: p<0.01; ***: p<0.001 (comparison versus TGFβ1 3 ng/mL group)].
The Human Intestinal Myofibroblasts (InMyoFib) (Lonza) were cultured in Smooth Muscle Cell Basal Medium (SmBM-2™) (Lonza cat # CC-3181) that was supplemented with SmGM™-2 BulletKit™ (Lonza cat # CC-4149). The complete medium contains 5% fetal bovine serum. For the activation experiments with TGFβ1, the inMyoFib were plated at a density of 10×10^3 cells per well in 96-well plates. The next day, cell-culture medium was removed, and cells were washed with PBS (Invitrogen cat #14190). InMyoFib were deprived for 24 hours in serum-free, insulin-free and rhFGF-B-free medium. […]
The level of α-SMA was measured using a Sandwich ELISA. […]

[2] = system: human primary hepatic stellate cells (hHSC); test: TGFβ1-induced expression of α-SMA protein in human HSC (ELISA); type: cell-based; conditions: TGFβ1 1 ng/ml, 48 hours
Protocol: Serum-deprived HSC were preincubated for 1 hour with NTZ (A) or TZ (B) before the activation with the profibrogenic cytokine TGFβ1 (1 ng/ml). After 48 hours of incubation, the expression of α-SMA was measured by ELISA. The obtained values were transformed into percentage inhibition over TGFβ1 control. Data are presented as mean (triplicates)±standard deviation (SD). Statistical analyses were performed by one-way ANOVA followed by Bonferroni post-hoc tests, using Sigma Plot 11.0 software. [*: p<0.05; **: p<0.01; ***: p<0.001 (comparison versus TGFβ1 1 ng/mL group)]. The curve fitting and the calculation of half maximal inhibitory concentration (IC50) were performed with XLFit software 5.3.1.3. The human primary hepatic stellate cells (hHSC) (Innoprot) were cultured in STeCM medium (ScienCell cat #5301) that was supplemented with 2% fetal bovine serum (FBS, ScienCell cat #0010), 1% penicillin/streptomycin (ScienCell cat #0503) and stellate cell growth supplement (SteCGS; ScienCell cat #5352). Cell culture flasks were coated with Poly-L Lysine (Sigma cat # P4707) for a better adherence. The human primary hepatic stellate cells (hHSC) (Innoprot) were cultured under standard conditions, as described above. The cells were subsequently plated at a density of 7×10^4 cells/well into 24-well plates for gene expression studies, and at a density of 2×10^4 cells/well into 96-well plates for the measure of α-SMA by ELISA. The next day, cell culture medium was removed, and cells were washed with PBS (Invitrogen cat #14190). hHSC were deprived for 24 hours in serum-free and SteCGS-free medium. For the treatments with NTZ or TZ, the serum-deprived hHSC were preincubated for 1 hour with the compounds followed by the addition of the profibrogenic stimuli TGFβ1 (PeproTech cat #100-21, 1 ng/mL) in serum-free and SteCGS-free medium for an additional 24 or 48 hour period (the timepoint is indicated in the figure legends). […] The level of α-SMA was measured using a Sandwich ELISA. […]

IC50 ([2]; Homo sapiens, 1 h preincubation, read-out: IC50 (level of α-SMA in TGFβ-induced HSCs)): 100 to 3000 nM
Structure (SMILES): O=C(Nc1ncc([N+](=O)[O-])s1)c1ccccc1O [TZ, 2-hydroxy-N-(5-nitro-2-thiazolyl)benzamide]
antifibrotic effects (α-SMA) in human Intestinal myofibroblasts [1]: significant antifibrotic effects
level of α-SMA in TGFβ-induced HSCs [2]: profile similar to the parent drug
